The values that follow come from patent publication US9573972B2, “Nurotoxic sterol glycosides” (priority 2008, dated 2017).

The test system of this data set is male CD-1 mice. Put plainly: Gait analysis (Digigait), SG-fed mice. The class given is in vivo, mouse. To be noted: SG-fed vs control. The source says: Five-month old male CD-1 mice (30.1-35.7 g, 7.5 cm-8.8 cm) were purchased from Charles River (Wilmington, Mass.). Adult mice were chosen to mimic the mean age of onset of ALS-PDC (Kurland, L. T. (1988a) Trends Neurosci. 11, 51-4; Kurland, L. T., et al. (1994) Amyotrophic lateral sclerosis-parkinsonism-dementia complex on Guam: epidemiologic and etiological perspectives. 109-131). Thirty mice for the SG study were randomly divided into 2 groups (14 control and 16 experimental animals). All animals were housed singly in a virus-free barrier facility in a room maintained at 22° C. under a 12 hour light/dark cycle. The mice were provided ad libitum access to food and water.
The synthetic SG was mixed with finely ground Purina Chow mouse pellets (Mouse Diet™, Purina) to create the experimental pellets with a SG content of 1000 μg per pellet. Dry materials were blended with a sterile silicon spatula. For every 5 g of standard feed, 2.5 mL of doubly-distilled water (dd)H2O was added and the dough was kneaded and round up into pellets. A single sterol glucoside containing pellet was placed in the feeding tray each morning before the addition of regular mouse chow (ad libitum). All experimental pellets were entirely consumed by the mice each day. Control mice were fed standard mouse chow pellets of identical weight with no additives. SG feeding was conducted daily for 15 weeks and mice were behaviorally monitored until sacrifice at 35 weeks (time point 1) or 52 weeks (time point 2).
Gait analysis: In order to examine spatial and temporal indices of front and hind limb stepping patterns during forward locomotion, mice were required to run on a colorless (PVC and polycarbonate), straight, level, walled motorized belt (Digigait™, treadmill motor: DC, HP; torque 451b-in, Mouse Specifics, Inc., Boston, Mass., USA) set at 30 rpm with a no-flicker light source (90-250 VAC; 25 kHZ, Mouse Specifics, Inc., Boston, Mass., USA) and camera mounted ventrally (relative to the animal) to facilitate continuous ventral plane videography (up to 150 frames per second) of activity. Gait indices were analyzed with the complementary digital imaging software (Digigait™, Mouse Specifics, Inc., Boston, Mass., USA) as per manufacturer's instructions. Briefly, the software converts “paw prints” into a digital signal and generates a temporal record of paw placement and breaks down the digital file into three main parameters: stride duration, swing duration, and stance duration. The stance duration is the period during which the paw of a limb is in contact with the belt surface. The software further subdivides the stance duration into two components: braking duration (the increase in paw contact area over a discrete time interval) and propulsion duration (the decrease in paw contact area over a discrete time interval). The swing duration is the period of time that a paw is not in contact with the belt surface. In addition to these factors, over a dozen additional characteristics, including stance factor, step-sequence pattern, propulsion, and cadence are generated to provide a spreadsheet format report of twenty-five gait indices.

As to `CC[C@H](/C=C/[C@@H](C)[C@H]1CC[C@H]2[C@@H]3CC=C4C[C@@H](O[C@@H]5O[C@H](CO)[C@@H](O)[C@H](O)[C@H]5O)CC[C@]4(C)[C@H]3CC[C@]12C)C(C)C` [SG, Stigmasterol β-D-Glucopyranoside], where the note is “Time-point 1 (35 wk)”, the Forelimb braking result was “Forelimb braking (ns)”, the Forelimb propulsion entry is on record as “Forelimb propulsion (ns)”, the Forelimb stance width entry is “Forelimb stance width (ns)” and the Forelimb stride length result is “Forelimb stride length (ns)”. Besides, for the setting “Time-point 1 (35 wk)”, the Hind limb braking entry was “Hind limb braking (ns)”, the Hind limb propulsion result was “Hind limb propulsion (ns)”, the “Hind limb stance width” value is given as “Hind limb stance width (ns)” and the “Hind limb stride frequency” value is “Hind limb stride frequency (ns)”. For the same compound, the “Hind limb stride length” value (Time-point 1 (35 wk)) is reported as “Hind limb stride length (ns)”. In addition, under “Time-point 2 (52 wk)”, the Forelimb braking result was “Forelimb braking* (*p < 0.05)”, the Forelimb propulsion result is given as “Forelimb propulsion* (*p < 0.05)”, the Hind limb braking result is given as “Hind limb braking* (*p < 0.05)” and the Hind limb propulsion entry is “Hind limb propulsion* (*p < 0.05)”. Further, where the note is “Time-point 2 (52 wk)”, the “Hind limb stride frequency” value is “Hind limb stride frequency* (*p < 0.05)”.
